# Experimental data as given in patent publication US9125926B2, “Vicenin 2 and analogues thereof for use as an antispasmodic and/or prokinetic agent” (priority 2011, dated 2015).
# Columns and labels:
# rat ileum [1] = experiment: Rat ileum contraction induced by increasing concentrations of acetylcholine (neurotropic antispasmodic effect)
# Procedure: (§1) An isolated vicenin 2 compound was tested for its antispasmodic effect with respect to the cholinergic system and with respect to nonspecific contraction mediated by Ba^++. Therefore, rat ileum was precontracted with increasing concentrations of either acetylcholine or Ba^++. The shift of either concentration response curve by the compound was determined. […] The dose of vicenin 2 for humans was estimated to be between 5 and 15 μg/70 kg b.w. which will correspond to 0.071 and 0.214 μg/kg b.w. Due to the increased metabolism in rodents compared to humans the doses were calculated as approx. between 0.5 and 1.49 μg/kg b.w. The central (blood) compartment (hydrophilic extracts) is approx. 7% of whole body volume, i.e. between 0.5/70 g and 1.4 μg/70 g blood. Since blood is in direct contact with ileum, a concentration of 7 to 20.86 μg/kg (0.007 to 0.021 μg/g) is expected for ileum. […] Therefore, it was reasonable to translate these in vivo calculations into the in vitro experiments and in these experiments 10 and 100 μl of a stock solution per 10 ml incubation bath were used. […] Under a protocol approved by the Animal Care and Use Committee of Munster, Germany, male and female rats (Charles River, Sulzfeld, Germany) weighing 200 to 320 g were used. The rats were anesthetized (CO2). The proximal ileum was removed, washed and placed in Krebs-Henseleit solution. 1 cm segments were placed in 10 mL organ baths with a resting tension of 1.0 g (preload). One end was attached to a force displacement transducer (lever transducer B40, Typ 373) combined with a two-channel amplifier (type 301, Hugo Sachs Elektronik, March, Germany); for the recording of tension changes a multi-pen recorder was used (Rikadenki Kogyo, Tokio, Japan). The composition of Krebs-Henseleit solution was (mM): […] The solution was kept at 37° C., pH 7.4 and gassed with carbogen (a 95% O2/5% CO2 mixture). Equilibration time for the ileum before starting the experiment was at least 30 min. After the tissues had been pre-treated with the extracts for 3 min cumulative concentration response curves using either acetylcholine or barium ion were recorded isotonically in the organ bath, and the effect was allowed to reach a steady state at each concentration. The results were normalized to 100% (maximum effect of either acetylcholine or barium ion alone). Differences between entire curves were obtained by comparing F-values of the best fitted curves by using GraphPad-Prism (version 3.00, GraphPad Software, Inc., 1999). P<0.05 was regarded as statistically significant.
# rat ileum [2] = experiment: Rat ileum contraction induced by increasing concentrations of barium ion (musculotropic antispasmodic effect)
# Procedure: as §1
# [3] = test system: murine frontal cortex networks; experiment: Cortical network activity in vitro, electrophysiological multi-channel recordings on MEA neurochips; type: cell-based, mice
# From the text: Purpose of this example was the evaluation of the acute neuroactive effects of vicenin 2 (named AUC-V) on the neuronal activity of murine frontal cortex networks in vitro by means of electrophysiological multi-channel recordings.
# Therefore, in a first step the dose-effect curve of vicenin 2 was plotted by means of cumulatively increasing the substance concentration, so that the spectrum of activity of the substance is optimally covered with 9 concentrations. Concentration from 100 fg/ml, 10 pg/ml, […], 1 ng/ml, 100 ng/ml, 1 μg/ml, 10 μg/ml, 100 μg/ml and 300 μg/ml were used.
# Subsequently, the measurements of the dose-effect curve of the test substances were repeated at least 10 times. The recorded electrical activity patterns were characterized by 200 features and their changes were statistically evaluated.
# The microelectrode array neurochips (MEA neurochips) were provided by the Center for Network Neuroscience (CNNS) at the University of North Texas. These 5×5 cm^2 glass chips have a central recording matrix with 64 passive electrodes and indium tin oxide conductors. The hydrophobic insulation material surface was activated by a brief butane flame pulse through a stainless steel mask. Thus, cell attachment on a confined adhesive region (5 mm diameter centered on the electrode array) is ensured. The activated surface regions were coated with poly-D-lysine (25 μg/ml; 30-70 kD) and laminin (16 μg/ml). Fabrication techniques and culture methods have been described previously.
# Frontal cortex tissue was harvested from embryonic day 15, or day 14 chr:NMRI mice. After ethyl ether anesthesia, mice were sacrificed by cervical dislocation according to the German Animal Protection Act §4. […] Cultures were incubated at 37° C. in a 10% CO2 atmosphere until ready for use, which usually is four weeks to three months after seeding. […]
# For extracellular recording, MEA neurochips were placed into sterilized constant-bath recording chambers and maintained at 37° C. […] The signals routinely recorded by these neurochips are located in a range of 15-1800 μV. […]
# [4] = test system: murine frontal cortex networks; experiment: Pattern recognition classification of activity patterns against the NeuroProof database (105 substances); type: cell-based, mice; conditions: AUC-V, all 143
# Procedure: Afterwards, a further analysis was carried out through a pattern-recognition analysis and through comparison with NeuroProof database to determine relevant mechanisms involved in the frontal cortex activity pattern induced changes by each substance.
# To clarify the mode of action of the test substance on the activity of cortical networks these experiments were further analyzed using methods of pattern recognition. For each stable concentration activity phase we normalized the 200 spike train parameters by the native reference activity.
# Using a feature selection algorithm, on the basis of the reference substances, the 40 most descriptive parameters for all 200 spike train parameters were selected. The rankings of activity features using various score methods based on classification experiments and compared their total correct predictions were calculated. In this manner, the best results for a MDL (minimal description length) modified algorithm were obtained. A training data set with these 40 spike train parameters was established in the form of data records from the reference substances. An artificial neuronal network, multi layer feed forward network and back propagation algorithm […] hidden units was then trained. The respective data records of the four substances were all subsequently classified. A classification against 105 substances in the database was carried out.
# The classification against 105 substances using the electrophysiological multi-channel recording of vicenin 2 and the 105 substances identified several activities for vicenin 2.
# rat ileum [5] = experiment: Rat ileum contraction, effect of the compound on its own (spasmolytic effect); conditions: data as % of maximum acetylcholine effect; FIG. 1
# Procedure: An isolated vicenin 2 compound was tested for its antispasmodic effect with respect to the cholinergic system and with respect to nonspecific contraction mediated by Ba^++. Therefore, rat ileum was precontracted with increasing concentrations of either acetylcholine or Ba^++. The shift of either concentration response curve by the compound was determined. […] The dose of vicenin 2 for humans was estimated to be between 5 and 15 μg/70 kg b.w. which will correspond to 0.071 and 0.214 μg/kg b.w. Due to the increased metabolism in rodents compared to humans the doses were calculated as approx. between 0.5 and 1.49 μg/kg b.w. The central (blood) compartment (hydrophilic extracts) is approx. 7% of whole body volume, i.e. between 0.5/70 g and 1.4 μg/70 g blood. Since blood is in direct contact with ileum, a concentration of 7 to 20.86 μg/kg (0.007 to 0.021 μg/g) is expected for ileum. […] Therefore, it was reasonable to translate these in vivo calculations into the in vitro experiments and in these experiments 10 and 100 μl of a stock solution per 10 ml incubation bath were used. […] After the tissues had been pre-treated with the extracts for 3 min cumulative concentration response curves using either acetylcholine or barium ion were recorded isotonically in the organ bath, and the effect was allowed to reach a steady state at each concentration. […]
# [6] = Solubility of isolated vicenin 2; type: physicochemical
smiles,measurement,setting,value
"CN1[C@@H]2CC[C@H]1C[C@@H](OC(=O)C(CO)c1ccccc1)C2 (stereo partly drawn) [Atropine, reference compound]",shift of the acetylcholine concentration response curve,"rat ileum [1]; positive control, 5×10^−5 mg/ml, FIG. 2",expected competitive neurotropic antispasmodic effect
same,shift of the acetylcholine concentration response curve,"rat ileum [1]; positive control, 5×10^−5 mg/ml, FIG. 2, listed as atropine",significantly different from the acetylcholine curve
"COc1ccc(Cc2nccc3cc(OC)c(OC)cc23)cc1OC [Papaverine, reference compound]",shift of the Ba++ concentration response curve,"rat ileum [2]; positive control, 4×10^−2 g/ml, FIG. 4",expected non-competitive musculotropic antispasmodic effect
same,shift of the Ba++ concentration response curve,"rat ileum [2]; positive control, 4×10^−2 g/ml, FIG. 4, listed as papaverine",significantly different from the acetylcholine curve without additions
"O=c1cc(-c2ccc(O)cc2)oc2c([C@@H]3O[C@H](CO)[C@@H](O)[C@H](O)[C@H]3O)c(O)c([C@@H]3O[C@H](CO)[C@@H](O)[C@H](O)[C@H]3O)c(O)c12 [vicenin 2, 5,7-Dihydroxy-2-(4-hydroxyphenyl)-6,8-bis[(2S,3R,4R,5S,6R)-3,4,5-trihydroxy-6 (hydroxymethyl)oxan-2-yl]chromen-4-one]",effect on burst structure of the network,[3],no affects on the burst structure
same,EC50,"[3]; Mus musculus, 9 accumulating concentrations, FIG. 6, read-out: EC50 of decrease of the cortical network activity (spike rate)",2 µg/mL
same,maximum decrease of the cortical network activity,"[3]; remaining activity, FIG. 6",80 % of the native activity
same,data records classified as the respective substance,[4]; classified as Amisulpride,15%
same,data records classified as the respective substance,[4]; classified as Atropinemethylbromide,12%
same,data records classified as the respective substance,[4]; classified as DPDPE,11%
same,data records classified as the respective substance,[4]; classified as Enkephalin,14%
same,data records classified as the respective substance,[4]; classified as Eserine,15%
same,data records classified as the respective substance,[4]; classified as Indatraline,12%
same,data records classified as the respective substance,[4]; classified as Modafinil,12%
same,data records classified as the respective substance,[4]; classified as Nicotine,12%
same,data records classified as the respective substance,[4]; classified as Olanzapine,17%
same,data records classified as the respective substance,[4]; classified as Sodium dodecyl sulfate,12%
same,shift of the acetylcholine concentration response curve,"rat ileum [1]; 0.005 mg/ml final bath concentration, FIG. 2",shifted the acetylcholine curve to the right in a competitive manner
same,shift of the acetylcholine concentration response curve,"rat ileum [1]; 0.005 mg/ml final bath concentration, FIG. 2, listed as AUC-V",significantly different from the acetylcholine curve
same,shift of the acetylcholine concentration response curve,"rat ileum [1]; 0.05 mg/ml final bath concentration, FIG. 3",stronger rightward and downward shift of the acetylcholine curve
same,shift of the acetylcholine concentration response curve,"rat ileum [1]; 0.05 mg/ml final bath concentration, FIG. 3, listed as AUC-V",significantly different from the acetylcholine curve
same,effect on rat ileum contraction from its own (direct spasmolytic effect),rat ileum [5],slight (not significant) relaxation
same,shift of the Ba++ concentration response curve,"rat ileum [2]; 0.005 mg/ml final bath concentration, FIG. 4",shifted the Ba^++ curve downwards
same,shift of the Ba++ concentration response curve,"rat ileum [2]; 0.005 mg/ml final bath concentration, FIG. 4, listed as AUC-V",significantly different from the acetylcholine curve without additions
same,shift of the Ba++ concentration response curve,"rat ileum [2]; 0.05 mg/ml final bath concentration, FIG. 5",rightward and downward shift of the Ba^++ curve
same,shift of the Ba++ concentration response curve,"rat ileum [2]; 0.05 mg/ml final bath concentration, FIG. 5, listed as AUC-V",significantly different from the acetylcholine curve with no further additions
same,solubility,[6],good solubility
